# According to patent US20260193180A1, “AUTOPHAGY INDUCING COMPOUNDS AND USES THEREOF” (SAMSARA THERAPEUTICS INC., priority 2022, published 2026):
# Tests used:
# [1] = test system: dopaminergic Tyrosine hydroxylase (TH)-positive neurons; assay: Cellular model of Parkinson's disease, MPP+ injury of primary mesencephalic culture; format: cell-based, rat; settings: 0.5 μM, MPP+ 4 μM for 48 h
# Experimental: This model (supplied by Neuro-Sys SAS, France) is based on a primary culture of dopaminergic Tyrosine hydroxylase (TH)-positive neurons injured with the dopaminergic neurons-specific toxin (DA-toxin) 1-methyl-4-phenyl-1,2,3,6 tetrahydropyridine (MPTP) (Dauer and Przedborski, 2003). Any substances reducing DA-toxin neurotoxicity may be useful as a new therapeutic agent for the treatment or prevention of PD.
# Primary culture of mesencephalic neurons: Rat dopaminergic neurons were cultured as described by Visanji et al., 2008 and Callizot et al., 2019. Briefly, pregnant female rat (Wistar) of 15 days of gestation were killed using a deep anesthesia with CO2 chamber and a cervical dislocation. The midbrains obtained from 15-day-old rat embryos (Janvier, France) were dissected under a microscope. The embryonic midbrains will be removed and placed in ice-cold medium of Leibovitz (L15) containing 2% of Penicillin-Streptomycin (PS) and 1% of bovine serum albumin (BSA). The ventral portion of the mesencephalic flexure, a region of the developing brain rich in dopaminergic neurons, was used for the cell preparations.
# The midbrains were dissociated by trypsinisation for 20 min at 37° C. (solution at a final concentration of 0.05% trypsin and 0.02% EDTA). The reaction was stopped by the addition of Dulbecco's modified Eagle's medium (DMEM) containing DNAase I grade II (0.5 mg/mL) and 10% of foetal calf serum (FCS). Cells were then mechanically dissociated by 3 passages through a 10 ml pipette. Cells were then centrifuged at 180×g for 10 min at +4° C. on a layer of BSA (3.5%) in L15 medium. The supernatant was discarded and the cell pellets re-suspended in a defined culture medium consisting of Neurobasal supplemented with B27 (2%), L-glutamine (2 mM) and 2% of PS solution and 10 ng/mL of Brain-derived neurotrophic factor (BDNF) and 1 ng/mL of Glial-Derived Neurotrophic Factor (GDNF). Viable cells were counted in a Neubauer cytometer using the trypan blue exclusion test. […]
# [2] = test system: Human osteosarcoma U2OS cells; assay: Acidic vesicle formation (lysosome/autolysosome staining, LysoView 633 / LysoTracker Deep Red), stimulation of autophagy; format: cell-based; settings: 24 hours
# Outline: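 U2OS cells treated with compound for 24 h, then stained 45 min at 37° C with 1× LysoView 633 or 50 nM LysoTracker Deep Red plus Hoechst nuclei. Live-cell fluorescence images (Cy5/DAPI) scored for acidic vesicle formation relative to DMSO control.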
smiles,measurement,setting,value
"CCOc1ccc(Cl)cc1CN1CC[C@@H](CN)C1.Cl [Compound 12, (S)-(1-(5-chloro-2-ethoxybenzyl)pyrrolidin-3-yl)methanamine hydrochloride]",neurite network of TH positive neurons,[1],protected
same,neuronal survival (total number of TH positive neurons),[1],improved
same,α-Synuclein aggregation in dopaminergic neurons,[1],reduced
same,activation at 0.8 µM,"[2]; 0.8 μM, read-out: Activity (percentage increase in acidic vesicle formation over the DMSO-treated control)",30 to 50%
same,activation at 10 µM,"[2]; 10 μM, read-out: increase in acidic vesicle formation over the DMSO-treated control",≥ 25%
